1 molecule from US20240316165A1, “POLYNUCLEOTIDES ENCODING PROPIONYL-COA CARBOXYLASE ALPHA AND BETA SUBUNITS FOR THE TREATMENT OF PROPIONIC ACIDEMIA” (ModernaTX, Inc., priority 2021, published 2024) can be followed below.

The series in a line: tissue kinetics of the components of the drug product in rodents. Format: in vivo. The settings on record: tissue (tissue with the maximum mean value; not named), read-out: maximum mean tissue terminal-phase elimination half-life (t1/2) (converted). On the procedure:
An initial dosing interval of q3W is proposed on the basis of the duration of biomarker response observed in pharmacology studies in Peca−/−(A138T) mice. Specifically, at the minimum efficacious dose level of 0.5 mg/kg, decreases in plasma disease biomarkers were sustained for 3 weeks before rebounding toward pretreatment levels in propionic acidemia mice. The potential for drug product accumulation is considered low, with the planned clinical dosing regimen based on the kinetics of the components of the drug product.

For `CCCCCCCCCOC(=O)CCCCCCCN(CCO)CCCCCCCC(=O)OC(CCCCCCCC)CCCCCCCC` [Compound II], the half-life was 54.4 h.
